Target: T1, TSPO (Rattus norvegicus, UniProt P16257)
T1 construct: Eurofins Cerep (France), contract assay
Assay: TSPO (BZDp) antagonist radioligand displacement assay
Assay type: binding
Text: We explored the mechanism of action for FGIN-1-27 and whether the effect of FGIN-1-27 on Th17 differentiation was driven by TSPO, the reported target of this compound. We used two approaches: first, we investigated the correlation between FGIN-1-27 induced IL-17 down-regulation and binding to TSPO. For the binding studies, we used a biochemical radio ligand displacement assay with the well-characterized TSPO ligand PK-11195 as a tracer. […] Secondly, we purified CD4^+ T cells from spleen and lymph nodes of mice that lacked global expression of TSPO (TSPO KO mice)[19]. We added FGIN-1-27 to the cultures of CD4^+ T cells from controls or TSPO KO mice that were induced towards the Th17 differentiation program.
FGIN-1-27 were tested at 8 doses (0.3–40 µM) in the TSPO (BZDp) antagonist radioligand displacement assay at Eurofins Cerep (France). Radiolabeled PK11195 was used as a control and TSPO binding was calculated as a percent inhibition of control specific binding using the formula 100-(measured specific binding*100/control specific binding).
(h) Dose response plot showing effect of FGIN-1-27 on intracellular IL-17 and viability in pre- differentiated Th17 cells after re- stimulation. Data is normalized against […]
(i) Mean clinical scores of mice following active induction of EAE. Mice were injected i/p twice daily with vehicle or FGIN-1-27 for 7 days. Data are pooled from 5 mice/group. […]

T1 sequence (P16257 whole entry): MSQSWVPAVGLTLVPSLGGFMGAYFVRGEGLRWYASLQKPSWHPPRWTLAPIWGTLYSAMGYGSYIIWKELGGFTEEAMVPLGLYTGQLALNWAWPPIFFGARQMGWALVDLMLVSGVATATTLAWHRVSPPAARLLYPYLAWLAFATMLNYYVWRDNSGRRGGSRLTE

## CCCCCCN(CCCCCC)C(=O)Cc1c(-c2ccc(F)cc2)[nH]c2ccccc12 [FGIN-1-27, N, N-di-n-hexyl 2-(4-fluorophenyl) indole-3-acetamide]
0.3 µM, lowest validated testing concentration
  displacement of PK-11195: more than 90%
0.3–40 µM
  binding to TSPO: high affinity

Reference: publication PMC7048748, “Anxiolytic Drug FGIN-1-27 Ameliorates Autoimmunity by Metabolic Reprogramming of Pathogenic Th17 Cells” (Scientific Reports, 2020)
